Structures are written as SMILES. Numbers after ± are expanded uncertainties.

The conditions of this data set: Crystal; Adiabatic calorimetry.

As for `CN(C)C=O` [dimethylformamide], the Triple point temperature is on record as 212.86 ± 0.11 K.

Values taken from the NIST ThermoML archive (doi:10.1016/j.jct.2007.02.009).
